# Assay results: patent US6413775B1, “Polyamine analog-activated SSAT gene therapy” (Health Research, Inc., priority 1999, dated 2002)
# Like-named read-outs stand apart in the source and are kept apart here.
# Experiments:
# [1] = test system: SSAT mRNA; assay: Northern blot analysis of SSAT mRNA in clone H-10 cells ±Dox treated with DENSPM; assay type: cell-based, human; conditions: for SSAT mRNA / SSAT Effects: mRNA (fold): 48 h; for SSAT mRNA: relative to closed untreated = 1; for SSAT Effects: mRNA (fold): DENSPM 10 μM
# Protocol: (§1) A MCF-7 breast carcinoma cell line stably transfected with a tetracycline-off transfection system was purchased from Clontech Laboratories Inc. (Palo Alto, Calif.). The cells were cultured in Dulbecco's Modified Eagle's Medium (DMEM; Life Technologies, Gaithersburg, Md.), supplemented with 2 mM glutamine, 10% fetal bovine serum, penicillin at 100 U/ml, streptomycin at 100 U/ml and the antibiotic G418 (Life Technologies) at 100 μg/ml at 37° C. in the presence of 5% CO2.Cells were harvested by trypsinization and counted electronically (Coulter Model ZM, Coulter Electronics, Hialeah, Fla.). During treatment with polyamines or analogs, 1 mM aminoguanidine was routinely included in the media to prevent enzymatic oxidation to toxic products.
# (§2) Total RNA was extracted with guanidine isothiocyanate and purified by the commonly used cesium chloride gradient centrifugation. Human SSAT cDNA probe (Xiao et al, 1991, supra) was used in Northern blot analyses. ODC and SSAT enzyme activities were assayed as reported earlier (Kramer et al., 1995, J. Biol. Chem. 270, 2124-2132.31). Polyamines, their acetylated derivatives and the polyamine analog DENSPM were measured by high performance liquid chromatography as previously described in detail by Kramer et al. (Kramer et al., 1993, supra), which method is incorporated herein by reference.
# (§3) To enhance the growth inhibitory effects of DENSPM, and to more definitively examine the relationship between SSAT overexpression and cell growth, a cell line was developed in which SSAT expression is conditionally regulated by doxycycline (DOX) an analog of tetracycline which penetrates cells more effectively. MCF-7 cells containing the pTet-Off plasmid were transfected with the PTRE/expression plasmids described above using the Lipofectin method (Notarangelo et al., 1997, Focus, 19, 58-59, incorporated herein by reference). To facilitate clone selection, cells were co-transfected with a pTK-Hyg vector (Clontech Laboratories, Inc.). Transfected clones resistant to […] hygromycin were selected and tested for SSAT enzyme activity and/or mRNA in the presence or absence of 200 ng/ml Dox [+Dox and −Dox, respectively (Clontech Laboratories, Inc)]. In the presence of Dox, SSAT transcription is closed; in the absence of Dox, SSAT transcription is open. […] Clones, which expressed the lowest basal levels of SSAT activity or mRNA in +Dox and the greatest induced level of SSAT activity or mRNA −Dox, were selected for further study. Clones were maintained continuously under +Dox conditions until experiments were initiated.
# (§4) In this table are presented the effects of conditional overexpression on DENSPM induced SSAT mRNA and activity and on polyamine pool depletion. When exposed to 10 μM DENSPM for 24 h, MRNA levels increased by 4-fold in induced cells and remained at ^˜20-fold in uninduced cells. Presumably, some rate-limiting step prevented DENSPM from increasing MRNA beyond the already high levels in these cells.
# [2] = test system: spermidine-spermine N^1-acetyltransferase (SSAT); assay: SSAT enzyme activity in clone H-10 cells ±Dox treated with DENSPM; assay type: cell-based, human; conditions: for increase in SSAT activity: 10 μM DENSPM; for DENSPM-induced SSAT activity: cells transfected with human SSAT cDNA; for SSAT Activity / SSAT Effects: Activity (fold): 48 h; for SSAT Activity: relative to closed untreated = 1; for SSAT Effects: Activity (fold): DENSPM 10 μM
# Protocol: as §1, §2, §3, §4
# [3] = test system: Polyamine pools in H-10 cells; assay: Polyamine pools by HPLC in H-10 cells ±Dox treated with DENSPM; assay type: cell-based, human; conditions: for Polyamine Pools: AcSpd / Polyamine Pools: AcSpm / Polyamine Pools: Put / Polyamine Pools: Spd / Polyamine Pools: Spm: 48 h
# Protocol: as §1, §2, §4
# [4] = test system: spermidine-spermine N^1-acetyltransferase (SSAT); conditions: in many tumor cells; cited from earlier work
# [5] = test system: MCF-7/hSc clone H-10 cells; assay: Growth inhibition and dose-response of clone H-10 cells (MCF-7/hSc) ±Dox by DENSPM; assay type: cell-based, human; conditions: for growth inhibition: by 48 h; for Growth Effects: Onset of cytotoxicity: DENSPM 10 μM
# Protocol: as §1
# (§5) Relative growth inhibition by DENSPM. The relative antiproliferative effect exerted by DENSPM in H-10 and M-3 cells grown ±Dox was studied over an extended (8 d) time period. As shown in the FIG. 9, H-10-Dox cells were strikingly more sensitive to the antiproliferative action of the DENSPM than +Dox cells. Less than 15% growth inhibition was achieved by 48 h in +Dox H-10 cells compared to >80% in −Dox cells (FIG. 9). […] As a generality, DENSPM-mediated growth inhibition tended to be more cytotoxic during SSAT induction as indicated by the rapid loss in cell number (FIG. 9).
# The increased sensitivity of SSAT induced H-10 cells to DENSPM was quantitated by dose-response analysis. Cells were grown for 48 h ±Dox and then exposed to increasing concentrations of DENSPM for 48 h (FIG. 10). In the IC50 comparisons, −Dox cells were about approximately 100-fold more sensitive to DENSPM than +Dox cells (i.e. comparing IC50 values of 0.2 and 20 μM, respectively).
# [6] = test system: MCF-7/mSg clone M-3 cells; assay: Growth inhibition of clone M-3 cells (MCF-7/mSg) ±Dox by DENSPM; assay type: cell-based, human
# Protocol: as §1, §5
# [7] = test system: ornithine decarboxylase (ODC); assay: ODC enzyme activity in H-10 cells treated with DENSPM; assay type: cell-based, human; conditions: both +Dox and -Dox cells, irrespective of SSAT induction
# Protocol: as §1
# Total RNA was extracted with guanidine isothiocyanate and purified by the commonly used cesium chloride gradient centrifugation. Human SSAT cDNA probe (Xiao et al, 1991, supra) was used in Northern blot analyses. ODC and SSAT enzyme activities were assayed as reported earlier (Kramer et al., 1995, J. Biol. Chem. 270, 2124-2132.31). Polyamines, their acetylated derivatives and the polyamine analog DENSPM were measured by high performance liquid chromatography as previously described in detail by Kramer et al. (Kramer et al., 1993, supra), which method is incorporated herein by reference. […]
smiles,measurement,setting,value
"CCNCCCNCCCNCCCNCC [DENSPM, N^1, N^11diethylnorspermine]",SSAT mRNA levels increase,"[1]; 10 μM DENSPM for 24 h, 'induced cells' as printed",4 fold
same,SSAT mRNA levels,"[1]; 10 μM DENSPM for 24 h, 'uninduced cells' as printed",~20 fold
same,SSAT mRNA,[1]; Closed (+Dox) +DENSPM,8 X
same,SSAT Effects: mRNA (fold),[1]; Closed (Dox 200 ng/ml),8X fold
same,SSAT mRNA,[1]; Open (-Dox) +DENSPM,20 X
same,SSAT Effects: mRNA (fold),[1]; Open (no Dox),20X fold
same,increase in SSAT activity,[2]; +Dox cells,> 80 fold
same,DENSPM-induced SSAT activity,[2]; +Dox conditions (closed),~90 fold
same,increase in SSAT activity,[2]; -Dox cells,> 1500 fold
same,DENSPM-induced SSAT activity,[2]; -Dox conditions (open),1700 fold
same,SSAT Activity,[2]; Closed (+Dox) +DENSPM,89 X
same,SSAT Effects: Activity (fold),[2]; Closed (Dox 200 ng/ml),89X fold
same,SSAT Activity,[2]; Open (-Dox) +DENSPM,"1,700 X"
same,SSAT Effects: Activity (fold),[2]; Open (no Dox),1700X fold
same,"difference in SSAT activity with DENSPM treatment, open vs closed",[2]; from Table 3,about 20 fold
same,Polyamine Pools: AcSpd,[3]; Closed (+Dox) +DENSPM,20 pmol/10^6 cells
same,Polyamine Pools: AcSpm,[3]; Closed (+Dox) +DENSPM,50 pmol/10^6 cells
same,Polyamine Pools: Put,[3]; Closed (+Dox) +DENSPM,50 pmol/10^6 cells
same,Polyamine Pools: Spd,[3]; Closed (+Dox) +DENSPM,110 pmol/10^6 cells
same,Polyamine Pools: Spm,[3]; Closed (+Dox) +DENSPM,750 pmol/10^6 cells
same,Polyamine Pools: AcSpd,[3]; Open (-Dox) +DENSPM,<5 pmol/10^6 cells
same,Polyamine Pools: AcSpm,[3]; Open (-Dox) +DENSPM,20 pmol/10^6 cells
same,Polyamine Pools: Put,[3]; Open (-Dox) +DENSPM,<5 pmol/10^6 cells
same,Polyamine Pools: Spd,[3]; Open (-Dox) +DENSPM,<5 pmol/10^6 cells
same,Polyamine Pools: Spm,[3]; Open (-Dox) +DENSPM,65 pmol/10^6 cells
same,depletion of all three polyamines,"[3]; by 48 h, both +Dox and -Dox cells",near total depletion
same,induction of SSAT activity,[4],exceed 1000 fold
same,growth inhibition,[5]; +Dox H-10 cells,Less than 15%
same,IC50,"[5]; +Dox H-10 cells, grown 48 h ±Dox, then DENSPM 48 h, read-out: IC50 of DENSPM (growth)",20 µM
same,growth inhibition,[5]; -Dox H-10 cells,> 80%
same,IC50,"[5]; -Dox H-10 cells, grown 48 h ±Dox, then DENSPM 48 h, read-out: IC50 of DENSPM (growth)",0.2 µM
same,IC50,"[5]; Closed (Dox 200 ng/ml), 48 h, read-out: Growth Effects: IC50 Dose",200 µM
same,Growth Effects: Onset of cytotoxicity,[5]; Closed (Dox 200 ng/ml),4 days
same,Growth Effects: Onset of cytotoxicity,[5]; Open (no Dox),immediate
same,growth inhibition,[6]; induced M-3 cells,78%
same,growth inhibition,[6]; uninduced M-3 cells,25%
same,effect on ODC activity,[7],suppressed ODC activity
